Experimental data taken from BindingDB's records for doi:10.1016/j.chembiol.2006.12.006 (Research Institute, Hospital For Sick Children, 2007).
pIC50: −log10 of the molar value.

Biological target: T1, Beta-hexosaminidase subunit alpha (Homo sapiens, UniProt P06865)
T1 sequence (P06865 whole entry): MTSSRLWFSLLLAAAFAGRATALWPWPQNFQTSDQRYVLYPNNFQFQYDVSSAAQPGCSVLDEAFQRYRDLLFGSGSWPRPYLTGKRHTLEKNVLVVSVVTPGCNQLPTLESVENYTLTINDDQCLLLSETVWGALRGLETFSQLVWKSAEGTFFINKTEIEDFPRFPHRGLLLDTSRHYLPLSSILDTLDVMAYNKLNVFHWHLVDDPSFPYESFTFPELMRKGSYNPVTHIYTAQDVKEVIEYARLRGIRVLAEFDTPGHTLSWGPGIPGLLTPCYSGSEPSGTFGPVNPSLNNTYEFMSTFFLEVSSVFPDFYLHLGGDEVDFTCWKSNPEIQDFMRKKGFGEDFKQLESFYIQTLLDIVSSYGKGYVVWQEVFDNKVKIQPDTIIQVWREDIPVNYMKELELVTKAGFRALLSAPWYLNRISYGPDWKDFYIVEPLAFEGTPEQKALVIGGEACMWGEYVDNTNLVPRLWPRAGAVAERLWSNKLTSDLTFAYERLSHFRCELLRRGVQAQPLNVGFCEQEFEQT
Experiment: Enzyme Inhibition Assay
Conditions: 25 °C
Description: Enzyme assay based on 4-MU substrates with HTS to identify inhibitory compounds for Hex.

pIC50 | Structure (SMILES)
4.51 | CC(O)CCN1C(=O)c2cccc3cccc(c23)C1=O (stereo not given) [M-31867]
4.74 | O=C1NC(=O)c2cccc3cccc1c23 [BTB12933]
4.80 | O=C1c2cccc3cccc(c23)C(=O)N1CCCO [5141402]
3.86 | O=C1c2cccc3cccc(c23)C(=O)N1CC1CCCO1 (stereo not given) [M-31860]
3.97 | O=C1c2cccc3cccc(c23)C(=O)N1CCCc1ccccn1 [M-31862]
